In article PMC9271247, “Evaluation of antiplasmodial activity in silico and in vitro of N-acylhydrazone derivatives” (BMC Chemistry, 2022):

Experiments:
[1] = system: Plasmodium falciparum chloroquine resistant (W2) strain; test: In vitro antiplasmodial activity, blood smear (traditional) test, 48 h; assay type: cell-based; conditions: W2, 48 h, read-out: IC50 ± SD P. falciparum
Experimental: The parasites were synchronized using sorbitol treatment and the parasitemia was microscopically evaluated with Giemsa-stained blood smears.
After 48 h, blood smears were prepared, coded, stained with giemsa and examined at 1000×magnification. The parasitemia of controls (considered as 100% growth) was compared to test cultures, and then the percentage of infected red blood cells was calculated.
The results were expressed as mean of half-maximal inhibitory dose (IC50), with different drug concentrations performed in triplicate and compared with drug-free controls. Curve fitting was performed using OriginPro® 8.0 software (Origin Lab Corporation, Northampton, MA, USA).

in vitro = conditions: human, LC50 ± SD WI-26VA4
Experimental: (§1) Negative controls were composed of cells without treatment. Five serial dilutions (1:10) were made from a stock solution (10 mg mL − 1) using RPMI supplemented with 1% FBS. Cell viability was evaluated after 48 h of incubation by discarding the medium and adding 100 μL of 5% MTT, followed by 3 h of incubation. Then, the supernatant was discarded, and insoluble formazan product was dissolved in DMSO. The optical density (OD) of each well was measured using a microplate spectrophotometer at 550 nm. The OD of untreated control cells was defined as 100% cell viability and all assays were performed in triplicate. The selectivity index (SI) of samples was calculated by following Eq. 1 [29].1 SI=LC50of WI-26VA4 cell line/IC50ofP.falciparumstrain W2

[2] = system: human lung fibroblast cell line WI-26VA4 (ATCC CCL-95.1); test: in vitro; conditions: 48 h
Experimental: as §1

| Compound | IC50 [1] [µM] | CC50 at 48 h (in vitro) [µM] | CC50 [2] [µM] |
| --- | --- | --- | --- |
| O=C(N/N=C/c1cccc(O)c1)c1ccccc1 [AH1, N'-[(1E)-(3-hydroxyphenyl)methylene]benzohydrazide] | 0.19 ± 0.1 | > 100 | > 100 |
| CO[C@H]1O[C@@H]2O[C@@]3(C)CC[C@H]4[C@H](C)CC[C@@H]([C@H]1C)[C@@]24OO3 [Artemether, reference compound] | < 1.01 | 100 ± 0.18 |  |
| O=C(N/N=C/c1cccc(O)c1)c1ccncc1 [AH7, N'-[(1E)-(3-hydroxyphenyl)methylene]isonicotinohydrazide] | > 1 | 100 ± 0.13 |  |
| O=C(N/N=C/c1cccc(O)c1)c1ccc(NC(=O)c2ccccc2)cc1 [AH5, N-(4-{[(2E)-2-(3-hydroxybenzylidene)hydrazino]carbonyl}phenyl) benzamide] | 0.07 ± 0.07 | > 100 | > 100 |
| O=C(N/N=C/c1cccc(O)c1)c1ccc([N+](=O)[O-])cc1 [AH3, N'-[(1E)-(3-hydroxyphenyl)methylene]-4-nitrobenzohydrazide] | > 1 | 100 ± 0.19 |  |
| CCN(CC)CCCC(C)Nc1ccnc2cc(Cl)ccc12 (stereo not drawn) [Chloroquine, reference compound] | 0.057 ± 0.14 |  |  |
| O=C(N/N=C/c1cccc(O)c1)c1ccc(O)cc1 [AH4, 4-hydroxy-N'-[(1E)-(3-hydroxyphenyl)methylene]benzohydrazide] | 0.09 ± 0.05 | > 100 | > 100 |
| O=C(O)CCC(=O)Nc1ccc(C(=O)N/N=C/c2cccc(O)c2)cc1 [AH6, 4-[(4-{[(2E)-2-(3-hydroxybenzylidene)hydrazino]carbonyl}phenyl)amino]-4-oxobutanoic acid] | > 1 | 100 ± 0.17 |  |
| O=C(N/N=C/c1cccc(O)c1)c1ccc(Cl)cc1 [AH2, 4-chloro-N'-[(1E)-(3-hydroxyphenyl)methylene]benzohydrazide] | 2.15 ± 0.09 | > 100 | > 100 |
